According to US12552766B2, “Pesticidally active azole amide compounds” (SYNGENTA CROP PROTECTION AG, priority 2019, dated 2026):

Tests used:
Assay type in all cases: in vivo
[1] = system: Chilo suppressalis (Striped Rice Stemborer); assay: Example B4: Chilo suppressalis, artificial diet; details: 144 h, application rate of 200 ppm, L2 larvae, 6 days after infestation, read-out: control in at least one of the three categories (mortality, anti-feedant effect, or growth inhibition)
Experimental: 24-well microtiter plates with artificial diet were treated with aqueous test solutions prepared from 10′000 ppm DMSO stock solutions by pipetting. After drying, the plates were infested with L2 larvae (6-8 per well). The samples were assessed for mortality, anti-feeding effect, and growth inhibition in comparison to untreated samples 6 days after infestation. Control of Chilo suppressalis by a test sample is given when at least one of the categories mortality, anti-feedant effect, and growth inhibition is higher than the untreated sample.

[2] = system: Plutella xylostella (Diamondback Moth); assay: Example B13: Plutella xylostella, artificial diet, 96-well; details: 216 h, application rate of 500 ppm, eggs/L1 larvae, 9 days after infestation
Experimental: 96-well microtiter plates containing artificial diet were treated with aqueous test solutions, prepared from 10′000 ppm DMSO stock solutions, by a liquid handling robot. After drying, eggs (˜30 per well) were infested onto a netted lid which was suspended above the diet. The eggs hatch and L1 larvae move down to the diet. The samples were assessed for mortality 9 days after infestation.

[3] = system: Plutella xylostella (Diamond Back Moth); assay: Example B5: Plutella xylostella, artificial diet, 24-well; details: 192 h, application rate of 200 ppm, eggs, 8 days after infestation, read-out: control in at least one of the two categories (mortality or growth inhibition)
Experimental: 24-well microtiter plates with artificial diet were treated with aqueous test solutions prepared from 10′000 ppm DMSO stock solutions by pipetting. After drying, Plutella eggs were pipetted through a plastic stencil onto a gel blotting paper and the plate was closed with it. The samples were assessed for mortality and growth inhibition in comparison to untreated samples 8 days after infestation.

[4] = system: Spodoptera littoralis (Egyptian Cotton Leaf Worm); assay: Example B9: Spodoptera littoralis, spray on cotton leaf discs; details: foliar, 72 h, application rate of 200 ppm, L1 larvae, 3 days after infestation, read-out: control in at least one of the three categories (mortality, anti-feedant effect, or growth inhibition)
Experimental: Cotton leaf discs were placed onto agar in 24-well microtiter plates and sprayed with aqueous test solutions prepared from 10′000 ppm DMSO stock solutions. After drying the leaf discs were infested with five L1 larvae. The samples were assessed for mortality, anti-feeding effect, and growth inhibition in comparison to untreated samples 3 days after infestation. Control of Spodoptera littoralis by a test sample is given when at least one of the categories mortality, anti-feedant effect, and growth inhibition is higher than the untreated sample.

[5] = system: Diabrotica Balteata (Corn Root Worm); assay: Example B1: Diabrotica balteata, spray on maize sprouts; details: 96 h, application rate of 200 ppm, L2 larvae, 4 days after infestation, read-out: control in at least one of the two categories (mortality or growth inhibition)
Experimental: Maize sprouts placed onto an agar layer in 24-well microtiter plates were treated with aqueous test solutions prepared from 10′000 ppm DMSO stock solutions by spraying. After drying, the plates were infested with L2 larvae (6 to 10 per well). The samples were assessed for mortality and growth inhibition in comparison to untreated samples 4 days after infestation.

CC(NC(=O)c1cc(OCC(F)(F)F)cc(C(F)(F)F)c1)c1nc(Br)nn1-c1ncc(OC(F)F)cn1 (stereo not shown) [Compound P4, N-[1-[5-bromo-2-[5-(difluoromethoxy)pyrimidin-2-yl]-1,2,4-triazol-3-yl]ethyl]-3-(2,2,2-trifluoroethoxy)-5-(trifluoromethyl) benzamide]
≥ 80%: percent control (mortality, anti-feedant effect or growth inhibition) at 200 ppm [1] | mortality at 500 ppm [2] | percent control (mortality or growth inhibition) at 200 ppm [3] | percent control (mortality, anti-feedant effect or growth inhibition) at 200 ppm [4] | percent control (mortality or growth inhibition) at 200 ppm [5]

CC(NC(=O)c1cc(OCC(F)(F)F)cc(C(F)(F)F)c1)c1nc(Br)nn1-c1ncc(OCC(F)F)cn1 (stereo not shown) [Compound P19, N-[1-[5-bromo-2-[5-(2,2-difluoroethoxy)pyrimidin-2-yl]-1,2,4-triazol-3-yl]ethyl]-3-(2,2,2-trifluoroethoxy)-5-(trifluoromethyl) benzamide]
≥ 80%: percent control (mortality, anti-feedant effect or growth inhibition) at 200 ppm [1] | mortality at 500 ppm [2] | percent control (mortality or growth inhibition) at 200 ppm [3] | percent control (mortality, anti-feedant effect or growth inhibition) at 200 ppm [4] | percent control (mortality or growth inhibition) at 200 ppm [5]

CC(NC(=O)c1cc(Br)cc(C(F)(F)F)c1)c1nc(Br)nn1-c1ncc(OC(F)F)cn1 (stereo not shown) [Compound P1, 3-bromo-N-[1-[5-bromo-2-[5-(difluoromethoxy)pyrimidin-2-yl]-1,2,4-triazol-3-yl]ethyl]-5-(trifluoromethyl) benzamide]
≥ 80%: percent control (mortality, anti-feedant effect or growth inhibition) at 200 ppm [1] | mortality at 500 ppm [2] | percent control (mortality or growth inhibition) at 200 ppm [3] | percent control (mortality, anti-feedant effect or growth inhibition) at 200 ppm [4] | percent control (mortality or growth inhibition) at 200 ppm [5]

CC(NC(=O)c1cc(C(F)(F)F)cc(C(F)(F)F)c1)c1nc(Br)nn1-c1ccc(OCC(F)(F)F)cn1 (stereo not shown) [Compound P17, N-[1-[5-bromo-2-[5-(2,2,2-trifluoroethoxy)-2-pyridyl]-1,2,4-triazol-3-yl]ethyl]-3,5-bis(trifluoromethyl) benzamide]
≥ 80%: percent control (mortality, anti-feedant effect or growth inhibition) at 200 ppm [1] | mortality at 500 ppm [2] | percent control (mortality or growth inhibition) at 200 ppm [3] | percent control (mortality, anti-feedant effect or growth inhibition) at 200 ppm [4] | percent control (mortality or growth inhibition) at 200 ppm [5]

CC(NC(=O)c1cc(C(F)(F)F)cc(C(F)(F)F)c1)c1nc(Br)nn1-c1ncc(OCC(F)(F)F)cn1 (stereo not shown) [Compound P44, N-[1-[5-bromo-2-[5-(2,2,2-trifluoroethoxy)pyrimidin-2-yl]-1,2,4-triazol-3-yl]ethyl]-3,5-bis(trifluoromethyl) benzamide]
≥ 80%: percent control (mortality, anti-feedant effect or growth inhibition) at 200 ppm [1] | mortality at 500 ppm [2] | percent control (mortality or growth inhibition) at 200 ppm [3] | percent control (mortality, anti-feedant effect or growth inhibition) at 200 ppm [4] | percent control (mortality or growth inhibition) at 200 ppm [5]

CC(NC(=O)c1cc(OCC(F)(F)F)cc(C(F)(F)F)c1)c1nc(Br)nn1-c1ccc(OCC(F)F)cn1 (stereo not shown) [Compound P53, N-[1-[5-bromo-2-[5-(2,2-difluoroethoxy)-2-pyridyl]-1,2,4-triazol-3-yl]ethyl]-3-(2,2,2-trifluoroethoxy)-5-(trifluoromethyl) benzamide]
≥ 80%: percent control (mortality, anti-feedant effect or growth inhibition) at 200 ppm [1] | mortality at 500 ppm [2] | percent control (mortality or growth inhibition) at 200 ppm [3]

CC(NC(=O)c1cc(Cl)cc(C(F)(F)F)c1)c1nc(Br)nn1-c1ncc(OC(F)F)cn1 (stereo not shown) [Compound P29, N-[1-[5-bromo-2-[5-(difluoromethoxy)pyrimidin-2-yl]-1,2,4-triazol-3-yl]ethyl]-3-chloro-5-(trifluoromethyl) benzamide]
≥ 80%: percent control (mortality, anti-feedant effect or growth inhibition) at 200 ppm [1] | mortality at 500 ppm [2] | percent control (mortality or growth inhibition) at 200 ppm [3] | percent control (mortality, anti-feedant effect or growth inhibition) at 200 ppm [4] | percent control (mortality or growth inhibition) at 200 ppm [5]

CC(NC(=O)c1cc(Cl)cc(C(F)(F)F)c1)c1nc(Br)nn1-c1ncc(OCC(F)F)cn1 (stereo not shown) [Compound P27, N-[1-[5-bromo-2-[5-(2,2-difluoroethoxy)pyrimidin-2-yl]-1,2,4-triazol-3-yl]ethyl]-3-chloro-5-(trifluoromethyl) benzamide]
≥ 80%: percent control (mortality, anti-feedant effect or growth inhibition) at 200 ppm [1] | mortality at 500 ppm [2] | percent control (mortality or growth inhibition) at 200 ppm [3] | percent control (mortality, anti-feedant effect or growth inhibition) at 200 ppm [4] | percent control (mortality or growth inhibition) at 200 ppm [5]

CC(NC(=O)c1cc(C(F)(F)F)cc(C(F)(F)F)c1)c1nc(Br)nn1-c1ccc(OCC(F)F)cn1 (stereo not shown) [Compound P15, N-[1-[5-bromo-2-[5-(2,2-difluoroethoxy)-2-pyridyl]-1,2,4-triazol-3-yl]ethyl]-3,5-bis(trifluoromethyl) benzamide]
≥ 80%: percent control (mortality, anti-feedant effect or growth inhibition) at 200 ppm [1] | mortality at 500 ppm [2] | percent control (mortality or growth inhibition) at 200 ppm [3] | percent control (mortality, anti-feedant effect or growth inhibition) at 200 ppm [4] | percent control (mortality or growth inhibition) at 200 ppm [5]

CO/N=C(\C)c1nc(C(C)NC(=O)c2cc(C(F)(F)F)cc(C(F)(F)F)c2)n(-c2ccc(C#N)cn2)n1 (stereo not shown) [Compound P56, N-[1-[2-(5-cyano-2-pyridyl)-5-[(E)-N-methoxy-C-methyl-carbonimidoyl]-1,2,4-triazol-3-yl]ethyl]-3,5-bis(trifluoromethyl) benzamide]
≥ 80%: mortality at 500 ppm [2]

CC(NC(=O)c1cc(OCC(F)F)cc(C(F)(F)F)c1)c1nc(Br)nn1-c1ccc(OCC(F)F)cn1 (stereo not shown) [Compound P36, N-[1-[5-bromo-2-[5-(2,2-difluoroethoxy)-2-pyridyl]-1,2,4-triazol-3-yl]ethyl]-3-(2,2-difluoroethoxy)-5-(trifluoromethyl) benzamide]
≥ 80%: mortality at 500 ppm [2] | percent control (mortality or growth inhibition) at 200 ppm [3] | percent control (mortality, anti-feedant effect or growth inhibition) at 200 ppm [4]

CC(NC(=O)c1cc(OCC(F)F)cc(C(F)(F)F)c1)c1nc(Br)nn1-c1ncc(OCC(F)(F)F)cn1 (stereo not shown) [Compound P20, N-[1-[5-bromo-2-[5-(2,2,2-trifluoroethoxy)pyrimidin-2-yl]-1,2,4-triazol-3-yl]ethyl]-3-(2,2-difluoroethoxy)-5-(trifluoromethyl) benzamide]
≥ 80%: percent control (mortality, anti-feedant effect or growth inhibition) at 200 ppm [1] | mortality at 500 ppm [2] | percent control (mortality or growth inhibition) at 200 ppm [3] | percent control (mortality, anti-feedant effect or growth inhibition) at 200 ppm [4]

CC(NC(=O)c1cc(C(F)(F)F)cc(C(F)(F)F)c1)c1nc(Br)nn1-c1ncc(OC(F)F)cn1 (stereo not shown) [Compound P2, N-[1-[5-bromo-2-[5-(difluoromethoxy)pyrimidin-2-yl]-1,2,4-triazol-3-yl]ethyl]-3,5-bis(trifluoromethyl) benzamide]
≥ 80%: percent control (mortality, anti-feedant effect or growth inhibition) at 200 ppm [1] | percent control (mortality or growth inhibition) at 200 ppm [3] | percent control (mortality, anti-feedant effect or growth inhibition) at 200 ppm [4] | percent control (mortality or growth inhibition) at 200 ppm [5]

CC(NC(=O)c1cc(C(F)(F)F)cc(C(F)(F)F)c1)c1nc(Br)nn1-c1ccc(C#N)cn1 (stereo not shown) [Compound P11, N-[1-[5-bromo-2-(5-cyano-2-pyridyl)-1,2,4-triazol-3-yl]ethyl]-3,5-bis(trifluoromethyl)benzamide]
≥ 80%: percent control (mortality, anti-feedant effect or growth inhibition) at 200 ppm [1] | percent control (mortality or growth inhibition) at 200 ppm [3] | percent control (mortality, anti-feedant effect or growth inhibition) at 200 ppm [4] | percent control (mortality or growth inhibition) at 200 ppm [5]

CC(NC(=O)c1cc(OC(F)(F)F)cc(C(F)(F)F)c1)c1nc(Br)nn1-c1ccc(C#N)cn1 (stereo not shown) [Compound P9, N-[1-[5-bromo-2-(5-cyano-2-pyridyl)-1,2,4-triazol-3-yl]ethyl]-3-(trifluoromethoxy)-5-(trifluoromethyl)benzamide]
≥ 80%: percent control (mortality, anti-feedant effect or growth inhibition) at 200 ppm [1] | percent control (mortality or growth inhibition) at 200 ppm [3] | percent control (mortality, anti-feedant effect or growth inhibition) at 200 ppm [4] | percent control (mortality or growth inhibition) at 200 ppm [5]

CC(NC(=O)c1cc(OC(F)F)cc(C(F)(F)F)c1)c1nc(Br)nn1-c1ccc(OC(F)F)cn1 (stereo not shown) [Compound P7, N-[1-[5-bromo-2-[5-(difluoromethoxy)-2-pyridyl]-1,2,4-triazol-3-yl]ethyl]-3-(difluoromethoxy)-5-(trifluoromethyl) benzamide]
≥ 80%: percent control (mortality, anti-feedant effect or growth inhibition) at 200 ppm [1] | percent control (mortality or growth inhibition) at 200 ppm [3] | percent control (mortality, anti-feedant effect or growth inhibition) at 200 ppm [4] | percent control (mortality or growth inhibition) at 200 ppm [5]
